The data set is described as follows: Stability accelerated test (purity of nicotinamide riboside by HPLC). Format: physicochemical. The note with it: 25° C.±2° C., relative humidity 60% ±10%, average of 3 samples. As for the experimental part:
The stability accelerated test was carried out on test subjects (nicotinamide riboside and the nicotinamide riboside composition prepared in Embodiment 1 to Embodiment 4 of the present invention) in accordance with the provisions of the Guidelines for Drug Stability Test in the Chinese Pharmacopoeia 2015. The test method was: taking 3 samples from each test subject in an environment with a temperature of 25° C.±2° C. and a relative humidity of 60% ±10%, taking samples once at the end of the 0th month, 1st month, 2nd month, 3rd month, and 6th month during the test period, detecting the purity of nicotinamide riboside by HPLC, and calculating an average value of 3 parts. In the table, 1, 2, 3 and 4 in the first column represent Embodiment 1, Embodiment 2, Embodiment 3 and Embodiment 4, respectively, NR represents nicotinamide riboside, KGM represents konjac glucomannan, and RA represents rebaudioside A.

Experimental findings from patent publication US11052100B2, “Stable nicotinamide riboside composition and preparation method thereof” (BONTAC BIO-ENGINEERING (SHENZHEN) CO., LTD, priority 2018, dated 2021) are described below.

For the compound `NC(=O)c1ccc[n+]([C@@H]2O[C@H](CO)[C@@H](O)[C@H]2O)c1` [NR, Nicotinamide riboside], the “purity of nicotinamide riboside by HPLC, 0th month” value (end of 0th month) stood at 99.6%. Also, the “purity of nicotinamide riboside by HPLC, 1st month” value (end of 1st month) was found to be 10.6%. Besides, the “purity of nicotinamide riboside by HPLC, 2nd month” value (end of 2nd month) is 5.1%. The “purity of nicotinamide riboside by HPLC, 3rd month” value (end of 3rd month) was determined as 3.4%. In addition, the “purity of nicotinamide riboside by HPLC, 6th month” value (end of 6th month) is recorded as 3.2%.
